Reference: paper PMC1951785, “Enlightening Energy Parasitism by Analysis of an ATP/ADP Transporter from Chlamydiae” (PLoS Biology, 2007)

T1: PamNTT1 (Candidatus Protochlamydia amoebophila, UniProt Q70GF7)
T1 construct: gene ntt1; full-length, N-terminal His tag (pET16b)
T1 sequence (Q70GF7 1-513): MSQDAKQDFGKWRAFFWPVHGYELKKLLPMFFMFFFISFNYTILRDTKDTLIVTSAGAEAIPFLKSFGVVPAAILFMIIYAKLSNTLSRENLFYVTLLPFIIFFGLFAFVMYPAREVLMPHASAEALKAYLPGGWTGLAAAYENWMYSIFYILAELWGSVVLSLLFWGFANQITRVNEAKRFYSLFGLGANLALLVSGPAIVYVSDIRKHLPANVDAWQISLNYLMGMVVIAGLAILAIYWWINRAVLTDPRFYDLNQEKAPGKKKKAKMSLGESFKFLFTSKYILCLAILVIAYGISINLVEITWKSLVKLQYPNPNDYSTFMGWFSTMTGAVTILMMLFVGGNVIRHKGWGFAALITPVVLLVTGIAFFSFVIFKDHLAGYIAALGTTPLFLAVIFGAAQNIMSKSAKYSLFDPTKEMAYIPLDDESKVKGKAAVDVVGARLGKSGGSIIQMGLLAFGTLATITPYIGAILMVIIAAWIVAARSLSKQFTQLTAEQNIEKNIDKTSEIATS

B1: PamNTT1 (Candidatus Protochlamydia amoebophila UWE25) (protein)
chain: T1 sequence (Q70GF7 1-513)
notes: full-length, N-terminal His tag (pET16b)

What was measured:
PamNTT1 = molecular target: T1, PamNTT1; assay: [α[…]]ADP uptake into proteoliposomes, anion exchange separation; type: biochemical; conditions: apparent; ADP import in homo-exchange with 10 mM luminal ADP; pH 7.5; 30 °C; labelled compound
purified protein = substrate: Nc1ncnc2c1ncn2[C@@H]1O[C@H](COP(=O)(O)OP(=O)(O)OP(=O)(O)O)[C@@H](O)[C@H]1O; assay: purified protein; type: biochemical, Candidatus Protochlamydia amoebophila; conditions: apparent, ATP import in exchange with 10 mM luminal ADP, pH 7.5, 30 °C, labelled compound

| Molecule | K M (PamNTT1) | Km (purified protein) |
| --- | --- | --- |
| Nc1ncnc2c1ncn2[C@@H]1O[C@H](COP(=O)(O)OP(=O)(O)O)[C@@H](O)[C@H]1O [ADP] | Approximately equivalent K M values were estimated for the ADPim/ADPex and ATPim/ATPex homo-exchange mode | – |
| B1 | – | 17 µM |
